Consider 3 substances from US6972172B2, “Combinatorial complex carbohydrate libraries and methods for the manufacture and uses thereof” (Glycominds Ltd., priority 2000, dated 2005).

Test [1] concerns anti-Sialyl Lewis X IgM from mouse. As to the kind of experiment: Anti-Sialyl Lewis X antibody binding assay. The settings on record: Library 1 strip after the ERs sequence, anti-mouse IgM-biotin, avidin-peroxidase, O.D. 450 nm, versus control strip without nucleotide sugar. The procedure: Anti-Sialyl Lewis X: 100 μl of 10 μg/ml anti-Sialyl Lewis X IgM from mouse (Calbiochem 565953) was added to the plates and incubated for 1 hour at 25° C. in TBS containing 1% BSA. The wells were washed 3 times with 200 μl TBST with a last wash consisting of a 15 minutes soak, following which, a solution of TBS containing 1% BSA and 100 μl of 5 μg/ml goat anti-mouse IgM conjugated to biotin (SIGMA b-9265) was added to the plates and incubated for one hour at 25° C. The wells were washed 3 times with […] with a last wash consisting of a 15 minutes soak, followed by incubation with […] containing 1% BSA and 5 μg/ml avidin conjugated to peroxidase (SIGMA A-3151, 40 peroxidase units per mg protein) for 1 hour at 25° C. The wells were washed three times with 200 μl TBST with a last wash consisting of a 15 minutes soak. 100 μl of fresh peroxidase substrate solution was added, and an hour later the O.D. of the solution (at 450 nm) was determined.
When the above described binding assays were performed on covalently coupled monosaccharide acceptors, such as the case with Covalink NH plates, the TBS incubation solution was replaced with TBST and the wash steps were performed using high ionic strength buffer instead of TBST.

For test [2] the following is noted: activity of the polysaccharide as cited from the reference in Table 15; cited from earlier work.
The subject of test [3] is TGP lectin. As to the kind of experiment: TGP lectin binding assay. As to conditions: Library 1 strip after the ERs sequence; peroxidase-conjugated lectin, O.D. 450 nm; versus control strip without nucleotide sugar. Further details: species or system Tereagonolobus purpureas. The procedure:
TGP: 100 μl of 20 μg/ml TGP lectin conjugated to peroxidase (SIGMA L-1508, 10 peroxidase units per mg protein) was added to the plates and incubated for one hour at 25° C. in TBS containing 1% BSA and 10 millimolar of MnCl2 and of CaCl2. The wells were washed three times with 200 μl TBST with a last wash consisting of a 15 minutes soak. 100 μl of fresh peroxidase substrate solution was added, and an hour later the O.D. of the solution (at 450 nm) was determined. When the above described binding assays were performed on covalently coupled monosaccharide acceptors, such as the case with Covalink NH plates, the TBS incubation solution was replaced with TBST and the wash steps were performed using high ionic strength buffer instead of TBST.

In the case of “NeuAC α 2,3 Gal β 1,4 (Fuc α 1,3)GlcNAc [EM 6]”, in test [1], the “IgM Anti-Sialyl Lewis X binding” value was “increase”.

In the case of Fucoidan, the Activity entry in test [2] is “anti coagulant”.

As to Gal β 1,4 (Fuc α 1,3)GlcNAc-S [EM 5], the TGP binding entry in test [3] is reported as “increase”.
